Measurements as given in patent US8680133B2, “Alkyl indole-3-carbinol-derived antitumor agents” (The Ohio State University Research Foundation, priority 2009, dated 2014).

Tests used:
NCI-H226 = test: NCI60 screening, Non-Small Cell Lung Cancer, NCI-H226; type: cell-based, human
NCI-H460 = test: NCI60 screening, Non-Small Cell Lung Cancer, NCI-H460; type: cell-based, human
COLO 205 = test: NCI60 screening, Colon Cancer, COLO 205; type: cell-based, human
SF-539 = test: NCI60 screening, CNS Cancer, SF-539; type: cell-based, human
SNB-75 = test: NCI60 screening, CNS Cancer, SNB-75; type: cell-based, human
[1] = Hematology, serum chemistry, liver weight and food consumption of mice fed the OSU-A9M diet; type: in vivo
Text: Further supporting a lack of toxicity with the experimental diet is a preservation of body weight (and liver weight) of mice sacrificed at the conclusion of the 6-week treatment period. 1.3±0.1 g (3.9±0.5%) in drug-treated mice vs. 1.5±0.3 g (4.3±0.7%) in controls; liver percent body weight in parentheses following absolute weight, means±SD, n=7, P=0.1 and 0.5 for absolute and relative values. There was no significant difference in the amount of control or experimental diet consumed by the mice [2.4±0.3 g in drug-treated mice vs 2.5±0.1 g in controls (P=0.5)]. Throughout the treatment period, the drug-treated mice consumed 34.1±4.6 mg OSU-A9M per kg body weight per day, calculated as g diet consumed per day/g body weight×450 (overall mean±SD of weekly means).

NCl/ADR-RES = test: NCI60 screening, Ovarian Cancer, NCl/ADR-RES; type: cell-based, human
SW-620 = test: NCI60 screening, Colon Cancer, SW-620; type: cell-based, human
NCI-H322M = test: NCI60 screening, Non-Small Cell Lung Cancer, NCI-H322M; type: cell-based, human
CCRF-CEM = test: NCI60 screening, Leukemia, CCRF-CEM; type: cell-based, human
M14 = test: NCI60 screening, Melanoma, M14; type: cell-based, human
SN12C = test: NCI60 screening, Renal Cancer, SN12C; type: cell-based, human
MCF7 = test: NCI60 screening, Breast Cancer, MCF7; type: cell-based, human
[2] = tested on: human tumor cell lines of the cancer screening panel; test: NCI 60 cell line screening, whole panel, comparison with OSU-A9; type: cell-based; settings: OSU-A9 data not shown
SF-268 = test: NCI60 screening, CNS Cancer, SF-268; type: cell-based, human
[3] = Homo sapiens, read-out: LC50 (the source's name)
[4] = 450 ppm in diet, 6-week treatment, mean±SD, n=7
[5] = 450 ppm in diet, 18 to 24 weeks of age, mean±SD, n=5

SMILES: Cc1ccc2c(c1)c(CO)cn2S(=O)(=O)c1ccc(Cl)c([N+](=O)[O-])c1 [OSU-A9M, [1-(4-chloro-3-nitro-benzenesulfonyl)-5-methyl-1H-indol-3-yl]-methanol]
- TGI (NCI-H226): 3.32E−6
- GI50 (NCI-H226; Homo sapiens): 0.953 µM
- CC50 (NCI-H226; [3]): 17.4 µM
- Percent Growth (NCI-H226; Log10 Concentration −4.0): −65%
- Percent Growth (NCI-H226; Log10 Concentration −5.0): −45%
- Percent Growth (NCI-H226; Log10 Concentration −6.0): 49%
- Percent Growth (NCI-H226; Log10 Concentration −7.0): 93%
- Percent Growth (NCI-H226; Log10 Concentration −8.0): 91%
- TGI (NCI-H460): 3.36E−6
- GI50 (NCI-H460; Homo sapiens): 1.83 µM
- LC50 (concentration killing 50% of cells) (NCI-H460; Homo sapiens): 6.18 µM
- Percent Growth (NCI-H460; Log10 Concentration −4.0): −89%
- Percent Growth (NCI-H460; Log10 Concentration −5.0): −89%
- Percent Growth (NCI-H460; Log10 Concentration −6.0): 100%
- Percent Growth (NCI-H460; Log10 Concentration −7.0): 99%
- Percent Growth (NCI-H460; Log10 Concentration −8.0): 96%
- TGI (COLO 205): 3.14E−6
- GI50 (COLO 205; Homo sapiens): 1.7 µM
- CC50 (COLO 205; [3]): 5.79 µM
- Percent Growth (COLO 205; Log10 Concentration −4.0): −87%
- Percent Growth (COLO 205; Log10 Concentration −5.0): −95%
- Percent Growth (COLO 205; Log10 Concentration −6.0): 93%
- Percent Growth (COLO 205; Log10 Concentration −7.0): 92%
- Percent Growth (COLO 205; Log10 Concentration −8.0): 98%
- TGI (SF-539): 2.94E−6
- GI50 (SF-539; Homo sapiens): 1.6 µM
- CC50 (SF-539; [3]): 5.42 µM
- Percent Growth (SF-539; Log10 Concentration −4.0): −100%
- Percent Growth (SF-539; Log10 Concentration −5.0): −100%
- Percent Growth (SF-539; Log10 Concentration −6.0): 88%
- Percent Growth (SF-539; Log10 Concentration −7.0): 94%
- Percent Growth (SF-539; Log10 Concentration −8.0): 93%
- TGI (SNB-75): 2.70E−6
- GI50 (SNB-75; Homo sapiens): 1.4 µM
- LC50 (SNB-75; Homo sapiens): 5.19 µM
- Percent Growth (SNB-75; Log10 Concentration −4.0): −100%
- Percent Growth (SNB-75; Log10 Concentration −5.0): −100%
- Percent Growth (SNB-75; Log10 Concentration −6.0): 76%
- Percent Growth (SNB-75; Log10 Concentration −7.0): 83%
- Percent Growth (SNB-75; Log10 Concentration −8.0): 108%
- Amount of diet consumed ([1]; 450 ppm experimental diet): 2.4 ± 0.3 g
- Liver percent body weight [1, 4]: 3.9±0.5%
- Liver weight (absolute) [1, 4]: 1.3 ± 0.1 g
- ALP [1, 5]: 70.0 ± 14.6 iu/L
- ALT [1, 5]: 25.8 ± 8.0 iu/L
- AST [1, 5]: 69.6 ± 27.2 iu/L
- Albumin [1, 5]: 3.6 ± 0.2 g/dL
- BUN [1, 5]: 23.6 ± 2.9 mg/dL
- CK [1, 5]: 222.2 ± 144.5 iu/L
- Calcium [1, 5]: 10.7 ± 0.2 mg/dL
- Cholesterol [1, 5]: 193.4 ± 28.1 mg/dL
- Creatinine [1, 5]: 0.1 ± 0.0 mg/dL
- Globulin [1, 5]: 2.2 ± 0.1 g/dL
- Glucose [1, 5]: 301.8 ± 53.6 mg/dL
- Lymphocytes [1, 5]: 9.8 ± 3.1 ×10^3/μl
- Nucleated cells [1, 5]: 11.4 ± 3.7 ×10^3/μl
- PCV [1, 5]: 44.4 ± 1.1%
- Phosphorus [1, 5]: 6.5 ± 0.5 mg/dL
- Platelets [1, 5]: 327.2 ± 310.0 ×10^3/μl
- Potassium [1, 5]: 6.9 ± 0.4 mEq/L
- RBC [1, 5]: 10.3 ± 0.3 ×10^6/μl
- Segmented neutrophils [1, 5]: 1.3 ± 0.5 ×10^3/μl
- Total Bilirubin [1, 5]: 0.2 ± 0.0 mg/dL
- Total Protein [1, 5]: 5.8 ± 0.3 g/dL
- Complete cell blood counts and serum chemistry profiles ([1]; 450 ppm in diet, in words): none of the measured parameters are affected by drug treatment
- TGI (NCl/ADR-RES): 3.32E−6
- GI50 (NCl/ADR-RES; Homo sapiens): 1.81 µM
- CC50 (NCl/ADR-RES; [3]): 6.09 µM
- Percent Growth (NCl/ADR-RES; Log10 Concentration −4.0): −93%
- Percent Growth (NCl/ADR-RES; Log10 Concentration −5.0): −91%
- Percent Growth (NCl/ADR-RES; Log10 Concentration −6.0): 99%
- Percent Growth (NCl/ADR-RES; Log10 Concentration −7.0): 102%
- Percent Growth (NCl/ADR-RES; Log10 Concentration −8.0): 96%
- TGI (SW-620): 2.44E−6
- GI50 (SW-620; Homo sapiens): 1.21 µM
- CC50 (SW-620; [3]): 4.94 µM
- Percent Growth (SW-620; Log10 Concentration −4.0): −100%
- Percent Growth (SW-620; Log10 Concentration −5.0): −100%
- Percent Growth (SW-620; Log10 Concentration −6.0): 63%
- Percent Growth (SW-620; Log10 Concentration −7.0): 90%
- Percent Growth (SW-620; Log10 Concentration −8.0): 96%
- TGI (NCI-H322M): 3.10E−6
- GI50 (NCI-H322M; Homo sapiens): 1.68 µM
- LC50 (NCI-H322M; Homo sapiens): 5.71 µM
- Percent Growth (NCI-H322M; Log10 Concentration −4.0): −93%
- Percent Growth (NCI-H322M; Log10 Concentration −5.0): −96%
- Percent Growth (NCI-H322M; Log10 Concentration −6.0): 93%
- Percent Growth (NCI-H322M; Log10 Concentration −7.0): 89%
- Percent Growth (NCI-H322M; Log10 Concentration −8.0): 91%
- TGI (CCRF-CEM): 2.58E−6
- GI50 (CCRF-CEM; Homo sapiens): 0.3 µM
- CC50 (CCRF-CEM; [3]): 87.4 µM
- Percent Growth (CCRF-CEM; Log10 Concentration −4.0): −52%
- Percent Growth (CCRF-CEM; Log10 Concentration −5.0): −21%
- Percent Growth (CCRF-CEM; Log10 Concentration −6.0): 14%
- Percent Growth (CCRF-CEM; Log10 Concentration −7.0): 82%
- Percent Growth (CCRF-CEM; Log10 Concentration −8.0): 84%
- TGI (M14): 2.88E−6
- GI50 (M14; Homo sapiens): 1.52 µM
- CC50 (M14; [3]): 5.43 µM
- Percent Growth (M14; Log10 Concentration −4.0): −100%
- Percent Growth (M14; Log10 Concentration −5.0): −98%
- Percent Growth (M14; Log10 Concentration −6.0): 83%
- Percent Growth (M14; Log10 Concentration −7.0): 97%
- Percent Growth (M14; Log10 Concentration −8.0): 95%
- TGI (SN12C): 2.99E−6
- GI50 (SN12C; Homo sapiens): 1.41 µM
- CC50 (SN12C; [3]): 6.31 µM
- Percent Growth (SN12C; Log10 Concentration −4.0): −88%
- Percent Growth (SN12C; Log10 Concentration −5.0): −81%
- Percent Growth (SN12C; Log10 Concentration −6.0): 73%
- Percent Growth (SN12C; Log10 Concentration −7.0): 92%
- Percent Growth (SN12C; Log10 Concentration −8.0): 68%
- TGI (MCF7): 2.21E−6
- GI50 (MCF7; Homo sapiens): 0.582 µM
- CC50 (MCF7; [3]): 6.09 µM
- Percent Growth (MCF7; Log10 Concentration −4.0): −82%
- Percent Growth (MCF7; Log10 Concentration −5.0): −75%
- Percent Growth (MCF7; Log10 Concentration −6.0): 39%
- Percent Growth (MCF7; Log10 Concentration −7.0): 85%
- Percent Growth (MCF7; Log10 Concentration −8.0): 84%
- Potency in suppressing cancer cell growth compared with OSU-A9 [2]: significantly higher potency
- TGI (SF-268): 3.01E−6
- GI50 (SF-268; Homo sapiens): 1.65 µM
- CC50 (SF-268; [3]): 5.49 µM
- Percent Growth (SF-268; Log10 Concentration −4.0): −100%
- Percent Growth (SF-268; Log10 Concentration −5.0): −100%
- Percent Growth (SF-268; Log10 Concentration −6.0): 92%
- Percent Growth (SF-268; Log10 Concentration −7.0): 89%
- Percent Growth (SF-268; Log10 Concentration −8.0): 86%
